According to US6680335B2, “Methods of modulating protein tyrosine kinase function with substituted indolinone compounds” (Sugen, Inc., priority 1998, dated 2004):
Values joined by “and” are separate entries in the source; they are usually repeats but may differ in a detail not shown here. Equal entries are not always repeated.

Assays:
[1] = molecular target: T1, src protein kinase (Gallus gallus, UniProt P00523); experiment: Assay measuring SRC protein kinase activity (phosphorylation of a biotinylated peptide); assay type: biochemical; conditions: src from transformed yeast lysate, 5 μM ATP; for inhibition at 100 µM: compound at 100 μM; for IC50: cells without %
T1 construct: made in house; host or cells: Schizosaccharomyces pombe strain SP200, pRSP expression plasmids
Experimental: This assay is used to determine src protein kinase activity measuring phosphorylation of a biotinylated peptide as the readout.
a. Yeast transformed with src.
b. Cell lysates: Yeast cells expressing src are pelleted, washed once with water, re-pelleted and stored at −80° C. until use.
c. N-terminus biotinylated […] is prepared by standard procedures well known to those skilled in the art.
h. […] S. Pombe strain SP200 (h-s leul.32 ura4 ade21O) was grown as described and transformations were pRSP expression plasmids were done by the lithium acetate method (Superti-Furga, supra). Cells were grown in the presence of 1 μM thiamine to repress expression from the nmtl promoter or in the absence of thiamine to induce expression.
a. Preparation of src coated ELISA plate.
1. Coat ELISA plate with 0.5 μg/well anti-src mab in 100 μL of pH 9.6 sodium carbonate buffer at 4° C. overnight.
2. Wash wells once with PBS.
3. Block plate with 0.15 mL 5% milk in PBS for 30 min. at room temperature.
4. Wash plate 5× with PBS.
5. Add 10 μg/well of src transformed yeast lysates diluted in Lysis Buffer (0.1 mL total volume per well). (Amount of lysate may vary between hatches.) Shake plate for 20 minutes at room temperature.
b. Preparation of phosphotyrosine antibody-coated ELISA plate.
1. 4G10 plate: coat 0.5 μg/well 4G10 in 100 μL PBS overnight at 4° C. and block with 150 μL of 5% milk in PBS for 30 minutes at room temperature.
c. Kinase assay procedure.
1. Remove unbound proteins from steps 1-7, above, and wash plates 5× with PBS.
2. Add 0.08 mL Kinase Reaction Mixture per well (containing 10 μL of 10×Kinase Buffer and 10 μM (final concentration) biotin-[…] per well diluted in water.
3. Add 10 μL of compound diluted in water containing 10% DMSO and pre-incubate for 15 minutes at room temperature.
4. Start kinase reaction by adding 10 μL/well of 0.05 mM ATP in water (5 μM ATP final).
5. Shake ELISA plate for 15 min. at room temperature.
6. Stop kinase reaction by adding 10 μL of 0.5 M EDTA per well.
7. Transfer 90 μL supernatant to a blocked 4G10 coated ELISA plate from section B, above.
8. Incubate for 30 min. while shaking at room temperature.
9. Wash plate 5× with TBST.
10. Incubate with Vectastain ELITE ABC reagent (100 μL/well) for 30 min. at room temperature.
11. Wash the wells 5× with TBST.
12. Develop with Turbo TMB.
(§1) The IC50 values were measured for several of the compounds of the invention.

[2] = molecular target: T2, EGFR protein (Homo sapiens, UniProt P00533); experiment: ELISA assay measuring the kinase activity of the EGF receptor (captured from A431 cell lysate); assay type: biochemical
T2 construct: Add 120 μL TBS to ELISA plate containing captured EGFR; endogenous in cells; host or cells: A431 cells (lysate, captured with SUMO1 anti-EGFR antibody)
Experimental: The following protocol describes the reagents and procedures used to analyze protein tyrosine kinase activity on the EGFR protein.
2. SUMO1 monoclonal anti-EGFR antibody
All of the following steps are conducted at room temperature unless it is specifically indicated. All ELISA plate washing is by rinsing 4× with TBST.
1. Coat Corning 96 well ELISA plates with 0.5 μ/well of SUMO1 in a volume of 100 μL PBS. Store overnight at 4° C.
2. Remove unbound SUMO1 by inverting plate to remove liquid. Wash plates with distilled water. Pat plate on a paper towel to remove excess liquid and bubbles
3. Add 150 μL of Blocking Buffer to each well. Incubate while shaking on a microliter plate shaker at room temperature for 30 min.
4. Wash 3× with deionized water, then once with TBST. Pat plate on a paper towel to remove excess liquid and bubbles.
5. Dilute lysate in PBS (7 μg of lysate/100 μL of PBS).
6. Add 100 μL of diluted lysate to each well. Shake at room temperature for 60 min.
7. Wash as described in step 4.
8. Add 120 μL TBS to ELISA plate containing captured EGFR.
9. Dilute drugs/extracts 1:10 (unless specified otherwise) in TBS in 96-well polypropylene plates.
10. Add 13.5 μL diluted drugs/extracts to ELISA plate.
11. Incubate for 30 minutes while shaking at room temperature.
12. […] Incubate while shaking on a micro-liter plate shaker at room temperature for 5 min.
13. Stop Kinase reaction with the addition of 16.5 μL of 200 mM EDTA pH 8.0 to all wells.
14. Wash 4× with deionized water and twice with TBST.
15. Add 100 μL per well of anti-phosphotyrosine (1:3000 dilution in TBST). Incubate while shaking on a micro-liter plate shaker 30-45 minutes at room temperature while shaking.
16. Wash as described in step 4.
17. Add 100 μL per well of biosource Goat anti-rabbit IgG peroxidase conjugate (1:2000 dilution in TBST). Incubate 30 min. at room temperature while shaking.
18. Wash as described in step 4.
19. Add 100 μL of ABTS/H2O2 solution to each well.
20. Incubate 5 to 15 minutes while shaking. Remove any bubbles.
21. If necessary stop reaction with the addition of 10 μL of 0.2 M HCl/well.
22. Read assay on Dynatech MR7000 ELISA Plate Reader.
as §1

T2 sequence (P00533 25-1210): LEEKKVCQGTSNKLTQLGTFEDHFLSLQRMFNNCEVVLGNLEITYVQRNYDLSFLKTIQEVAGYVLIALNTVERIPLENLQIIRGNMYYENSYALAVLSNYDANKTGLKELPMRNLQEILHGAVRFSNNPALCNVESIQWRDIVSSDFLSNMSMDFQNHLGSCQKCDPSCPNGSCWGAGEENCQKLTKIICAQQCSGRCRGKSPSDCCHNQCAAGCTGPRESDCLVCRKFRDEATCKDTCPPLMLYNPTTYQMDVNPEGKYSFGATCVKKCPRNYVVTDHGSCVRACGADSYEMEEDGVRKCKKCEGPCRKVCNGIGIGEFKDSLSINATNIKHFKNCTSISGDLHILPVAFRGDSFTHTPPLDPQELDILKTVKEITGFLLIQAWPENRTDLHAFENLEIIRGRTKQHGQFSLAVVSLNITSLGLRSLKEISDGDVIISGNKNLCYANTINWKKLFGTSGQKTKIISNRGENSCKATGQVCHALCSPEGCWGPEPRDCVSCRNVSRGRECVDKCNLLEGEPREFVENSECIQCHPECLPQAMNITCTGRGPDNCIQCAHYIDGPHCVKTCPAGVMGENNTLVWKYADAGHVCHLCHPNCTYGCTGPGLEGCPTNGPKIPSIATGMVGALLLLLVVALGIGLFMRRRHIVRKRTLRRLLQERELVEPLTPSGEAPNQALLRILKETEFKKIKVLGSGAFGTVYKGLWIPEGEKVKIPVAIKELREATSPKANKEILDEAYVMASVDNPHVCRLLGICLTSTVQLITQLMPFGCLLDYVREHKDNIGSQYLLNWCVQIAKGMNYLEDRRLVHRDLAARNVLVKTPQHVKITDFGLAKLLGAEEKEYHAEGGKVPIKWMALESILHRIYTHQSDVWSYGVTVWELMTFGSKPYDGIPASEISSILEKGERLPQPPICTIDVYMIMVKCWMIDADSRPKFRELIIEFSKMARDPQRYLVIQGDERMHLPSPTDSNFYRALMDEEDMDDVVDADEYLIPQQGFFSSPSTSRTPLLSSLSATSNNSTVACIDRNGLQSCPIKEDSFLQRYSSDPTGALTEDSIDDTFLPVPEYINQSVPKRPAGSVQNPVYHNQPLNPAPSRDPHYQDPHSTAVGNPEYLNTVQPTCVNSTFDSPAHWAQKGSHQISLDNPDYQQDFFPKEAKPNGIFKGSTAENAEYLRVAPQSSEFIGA

O=C1Nc2ccc(C(=O)O)cc2/C1=C/c1cc2ccccc2[nH]1 [IN-010, 3-(1H-Indol-2-ylmethylene)-2-oxo-2,3-dihydro-1H-indole-5-carboxylic acid]
inhibition at 100 µM [1]: 36.4%
IC50 [2]: > 100 µM

Cc1ccc2c(c1)/C(=C/c1[nH]c3ccccc3c1C)C(=O)N2 [IN-001, 5-Methyl-3-(3-methyl-1H-indol-2-ylmethylene)-1,3-dihydro-indol-2-one]
inhibition at 100 µM [1]: -62%
IC50 [2]: > 100 µM

Cc1c(/C=C2\C(=O)Nc3ccc(Cl)cc32)[nH]c2ccccc12 [IN-017, 5-Chloro-3-(3-methyl-1H-indol-2-ylmethylene)-1,3-dihydro-indol-2-one]
inhibition at 100 µM [1]: 21.4%
IC50 [2]: > 100 µM

Cc1c(/C=C2\C(=O)Nc3ccccc32)[nH]c2ccccc12 [IN-016, 3-(3-Methyl-1H-indol-2-ylmethylene)-1,3-dihydro-indol-2-one]
inhibition at 100 µM [1]: 20.2%
IC50 [2]: > 100 µM

NS(=O)(=O)c1ccc2c(c1)/C(=C/c1cc3ccccc3[nH]1)C(=O)N2 [IN-008, 3-(1H-Indol-2-ylmethylene)-2-oxo-2,3-dihydro-1H-indole-5-sulfonic acid amide]
inhibition at 100 µM [1]: -11%
IC50 [2]: > 100 µM

O=C1Nc2ccc(Cl)cc2/C1=C/c1cc2ccccc2[nH]1 [IN-013, 5-chloro-3-(1H-indol-2-ylmethylene)-1,3-dihydro-indol-2-one]
inhibition at 100 µM [1]: -0.6%
IC50 [2]: > 100 µM

Cc1c(/C=C2\C(=O)Nc3ccc(Br)cc32)[nH]c2ccccc12 [IN-018, 5-Bromo-3-(3-methyl-1H-indol-2-ylmethylene)-1,3-dihydro-indol-2-one]
inhibition at 100 µM [1]: 19.5%
IC50 [2]: 17.8 µM and > 100 µM

Cc1cccc2c1/C(=C/c1[nH]c3ccccc3c1C)C(=O)N2 [IN-019, 4-Methyl-3-(3-methyl-1H-indol-2-ylmethylene)-1,3-dihydro-indol-2-one]
inhibition at 100 µM [1]: -6.5%
IC50 [2]: > 100 µM

Nc1ccc2c(c1)/C(=C/c1cc3ccccc3[nH]1)C(=O)N2 [IN-009, 5-Amino-3-(1H-indol-2-ylmethylene)-1,3-dihydro-indol-2-one]
IC50 [1]: 9 µM
IC50 [2]: > 100 µM

Cc1c(/C=C2\C(=O)Nc3ccc(C(=O)O)cc32)[nH]c2ccccc12 [IN-005, 3-(3-Methyl-1H-indol-2-ylmethylene)-2-oxo-2,3-dihydro-1H-indole-5-carboxylic acid]
IC50 [2]: 8.2 µM

CC(=O)c1ccc2c(c1)C(=Cc1[nH]c3ccccc3c1C)C(=O)N2 [IN-006, 5-Acetyl-3-(3-methyl-1H-indol-2-ylmethylene)-1,3-dihydro-indol-2-one]
IC50 [1]: > 100 µM
IC50 [2]: > 100 µM and 30.8 µM

O=C1Nc2cc(Cl)ccc2/C1=C/c1cc2ccccc2[nH]1 [IN-011, 6-Chloro-3-(1H-indol-2-ylmethylene)-1,3-dihydro-indol-2-one]
inhibition at 100 µM [1]: -38.5%
IC50 [2]: > 100 µM

O=C1Nc2ccccc2/C1=C/c1cc2ccccc2[nH]1 [IN-012, 3-(1H-Indol-2-ylmethylene)-1,3-dihydro-indol-2-one]
inhibition at 100 µM [1]: -12%
IC50 [2]: > 100 µM

Cc1c(/C=C2\C(=O)Nc3ccc(S(N)(=O)=O)cc32)[nH]c2ccccc12 [IN-002, 3-(3-Methyl-1H-indol-2-ylmethylene)-2-oxo-2,3-dihydro-1H-indole-5-sulfonic acid amide]
inhibition at 100 µM [1]: -3.5%
IC50 [2]: > 100 µM

CC(=O)c1ccc2c(c1)C(=Cc1cc3ccccc3[nH]1)C(=O)N2 [IN-007, 5-Acetyl-3-(1H-indol-2-ylmethylene)-1,3-dihydro-indol-2-one]
inhibition at 100 µM [1]: 12.4%
IC50 [2]: > 100 µM
